Assay results as given in patent publication US20100075852A1, “HERBICIDE COMBINATION COMPRISING DIMETHOXYTRIAZINYL-SUBSTITUTED DIFLUOROMETHANESULFONYLANILIDES” (BAYER CROPSCIENCE AG, priority 2008, published 2010).
Like-named read-outs stand apart in the source and are kept apart here.

Assays:
Test in all cases: Post-emergence action against weeds, greenhouse pot test, visual scoring
Format in all cases: in vivo
[1] = tested on: Fallopia (ex Polygonum) convolvulus (POLCO); settings: for (7) activity found: POLCO, 21 DAT
Method: (§1) Seeds or rhizome pieces of mono- and dicotyledonous harmful and useful plants were placed in peat pots (diameter 4 cm) filled with sandy loam and then covered with soil. The pots were kept in a greenhouse under optimum conditions. In addition, harmful plants encountered in paddy rice cultivation were cultivated in pots with a water level 2 cm above the soil surface.
(§2) About three weeks after the start of the cultivation, the test plants were treated at the 2- to 3-leaf stage. The herbicides, formulated as powder or liquid concentrates, were, either alone or in the combinations according to the invention, sprayed in various dosages on to the green parts of the plants using an application rate of 600 l of water/ha (converted). For further cultivation of the plants, the pots were then again kept under optimum conditions in a greenhouse.
(§3) The visual scoring of the herbicidal effects was carried out in intervals up to 21 days after the treatment. Scoring was carried out in percent in comparison to the untreated control plants. 0%=no herbicidal activity, 100%=complete herbicidal activity=complete kill.
(§4) The percentages from the treatments with the herbicides alone (=individual application) and with the combinations according to the invention (=mixtures) were employed to calculate interactions using the method of Colby.
(§5) • A, B=activity of components A and B in percent at a dosage of a and b g of ai/ha (=gramm of active substance per hectare), respectively. • E=expected value in % at a dosage of a+b g of ai/ha.

Avena fatua (AVEFA) = settings: for inhibition at 8 g/ha: Avena fatua, post-emergence, read-out: % activity found; for (7) activity found: AVEFA, 21 DAT
Method: as §1, §2, §3, §4, §5

[2] = tested on: Lolium multiflorum (LOLMU); settings: for (7) activity found: LOLMU, 10 DAT
Method: as §1, §2, §3, §4, §5

[3] = tested on: Matricaria inodora (MATIN); settings: for (7) activity found: MATIN, 21 DAT
Method: as §1, §2, §3, §4, §5

Zea mays (ZEAMX) = settings: for inhibition at 24 g/ha: Zea mays, post-emergence, read-out: % activity found; for (7) activity found: ZEAMX
Method: as §1, §2, §3, §4, §5

Setaria viridis (SETVI) = settings: 504 h, read-out: % activity found
Method: as §1, §2, §3
(§6) The percentages from the treatments with the herbicides alone (=individual application) and with the combinations according to the invention (=mixtures) were employed to calculate interactions using the method of Colby. When the observed efficacies of the mixtures exceed the formal sum of the values of the tests with individual applications, they also exceed the expected value according to Colby, which is calculated using the formula below (cf. S. R. Colby; in Weeds 15 (1967) pp. 20 to 22):
as §5

Oryza sativa (ORYSA) = settings: read-out: % activity found
Method: as §1, §2, §3, §6, §5

[4] = tested on: Alopecurus myosuroides (ALOMY); settings: read-out: % activity found
Method: as §1, §2, §3, §6, §5

Viola tricolor (VIOTR) = settings: rate (6) B7-4 40
Method: as §1, §2, §3, §4, §5

[5] = tested on: Abuthilon theophrasti (ABUTH); settings: 21 DAT, rate (6) B7-4 120
Method: as §1, §2, §3, §4, §5

Stellaria media (STEME) = settings: 10 DAT
Method: as §1, §2, §3, §4, §5

Veronica persica (VERPE) = settings: 21 DAT
Method: as §1, §2, §3, §4, §5

[6] = tested on: Triticum aestivum (TRZAS)
Method: as §1, §2, §3, §4, §5

[7] = tested on: Pharbitis purpurea (PHBPU); settings: 21 DAT
Method: as §1, §2, §3, §4, §5

[8] = Fallopia convolvulus, post-emergence, 504 h, read-out: % activity found
[9] = Lolium multiflorum, post-emergence, 240 h, read-out: % activity found
[10] = Tripleurospermum inodorum, post-emergence, 504 h, read-out: % activity found

Cc1nn(C)c(O)c1C(=O)c1ccc(C(F)(F)F)cc1S(C)(=O)=O [B1-6, (5-hydroxy-1,3-dimethyl-1H-pyrazol-4-yl)[2-(methylsulfonyl)-4-(trifluoromethyl)phenyl]methanone]
40%: inhibition at 8 g/ha (Oryza sativa (ORYSA); 504 h)
50%: inhibition at 8 g/ha [1, 8] | inhibition at 8 g/ha (Oryza sativa (ORYSA); 240 h)
60%: inhibition at 24 g/ha [1, 8]
70%: inhibition at 24 g/ha (Oryza sativa (ORYSA); 504 h)
0%: inhibition at 8 g/ha (Avena fatua (AVEFA); 240 h) | inhibition at 8 g/ha (Avena fatua (AVEFA); 504 h) | inhibition at 8 g/ha [2, 9] | inhibition at 24 g/ha [2, 9] | inhibition at 8 g/ha ([2]; Lolium multiflorum, post-emergence, 504 h, read-out: % activity found) | inhibition at 24 g/ha (Zea mays (ZEAMX); 240 h) | inhibition at 24 g/ha (Zea mays (ZEAMX); 504 h) | inhibition at 8 g/ha (Setaria viridis (SETVI)) | inhibition at 24 g/ha (Setaria viridis (SETVI)) | inhibition at 8 g/ha ([4]; 240 h) | inhibition at 24 g/ha ([4]; 240 h) | inhibition at 8 g/ha ([4]; 504 h) | inhibition at 24 g/ha ([4]; 504 h)
20%: inhibition at 8 g/ha [3, 10]
30%: inhibition at 24 g/ha [3, 10]

CCN(CC)C(=O)n1cnc(S(=O)(=O)c2c(C)cc(C)cc2C)n1 [B7-4, N,N-diethyl-3-[(2,4,6-trimethylphenyl)sulfonyl]-1H-1,2,4-triazole-1-carboxamide]
10%: (7) activity found (Stellaria media (STEME); rate (6) B7-4 40) | (7) activity found (Stellaria media (STEME); rate (6) B7-4 120) | (7) activity found (Zea mays (ZEAMX); 10 DAT, rate (6) B7-4 40)
40%: (7) activity found ([2]; rate (6) B7-4 120)
20%: (7) activity found [5] | (7) activity found ([7]; rate (6) B7-4 40) | (7) activity found ([7]; rate (6) B7-4 120)
50%: (7) activity found ([1]; rate (6) B7-4 120)
30%: (7) activity found ([1]; rate (6) B7-4 40 (Table 82)) | (7) activity found ([1]; rate (6) B7-4 40 (Table 83)) | (7) activity found (Avena fatua (AVEFA); rate (6) B7-4 120)
0%: (7) activity found (Avena fatua (AVEFA); rate (6) B7-4 40 (Table 78)) | (7) activity found (Avena fatua (AVEFA); rate (6) B7-4 40 (Table 79)) | (7) activity found (Viola tricolor (VIOTR); 10 DAT) | (7) activity found (Viola tricolor (VIOTR); 21 DAT) | (7) activity found ([2]; rate (6) B7-4 40) | (7) activity found ([3]; rate (6) B7-4 40) | (7) activity found ([3]; rate (6) B7-4 120) | (7) activity found (Veronica persica (VERPE); rate (6) B7-4 40) | (7) activity found (Veronica persica (VERPE); rate (6) B7-4 120) | (7) activity found ([6]; 10 DAT, rate (6) B7-4 40) | (7) activity found ([6]; 21 DAT, rate (6) B7-4 40) | (7) activity found ([6]; 21 DAT, rate (6) B7-4 120) | (7) activity found (Zea mays (ZEAMX); 21 DAT, rate (6) B7-4 40) | (7) activity found (Zea mays (ZEAMX); 21 DAT, rate (6) B7-4 120)
